In the supplement of paper PMC4862054:

How the values were obtained:
Settings in all cases: incubation time: 72 h
MDA-MB-468 [1] = assay: normalised viability (% of control), CellTiter-Blue; higher = more viable cells (about 100 = DMSO control)
In short: (§1)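 Each entry is normalised viability at a single listed concentration within a series. It comes from breast cancer cell lines incubated 72 h with compound in 384-well plates, then measured with CellTiter-Blue fluorescence at 560/590 nm. Every plate was normalised between vehicle (100) and a positive kill control (0).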

HCC1143 = assay: as above
In short: as §1

HCC1937 [2] = assay: as above
In short: as §1

MDA-MB-231 [3] = assay: as above
In short: as §1

CAL-148 = assay: as above
In short: as §1

HDQ-P1 = assay: as above
In short: as §1

MDA-MB-436 [4] = assay: as above
In short: as §1

HCC1599 [5] = assay: as above
In short: as §1

CAL-120 = assay: as above
In short: as §1

Hs578T = assay: as above
In short: as §1

SK-BR-3 = assay: as above
In short: as §1

CAL-85-1 [6] = assay: as above
In short: as §1

DU-4475 = assay: as above
In short: as §1

MDA-MB-453 = assay: as above
In short: as §1

MDA-MB-468 [7] = assay: drug sensitivity score (DSS), CellTox Green (DSS (AUC-based score)); higher = stronger drug effect (viability inhibition or cytotoxicity); extreme values may be limits of the assay
In short: (§2)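 The drug sensitivity score was computed from the area under the fitted dose-response curve. Breast cancer cell lines in 20 µl suspension went into 384-well plates holding compound at 5 concentrations (10-fold steps over a 10,000-fold, compound-specific range) for 72 h of incubation. CellTox Green fluorescence (485/520 nm) was read before CellTiter-Glo luminescence, the latter after 10 min at room temperature, and each plate was normalised to 0.1 % DMSO and a positive kill control.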

HCC1937 [8] = assay: as above
In short: as §2

MDA-MB-231 [9] = assay: as above
In short: as §2

MDA-MB-436 [10] = assay: as above
In short: as §2

HCC1599 [11] = assay: as above
In short: as §2

CAL-85-1 [12] = assay: as above
In short: as §2

MFM-223 = assay: as above
In short: as §2

MCF-10A = assay: as above
In short: as §2

Structure (SMILES): Nc1cc(C(F)(F)F)c(-c2cc(N3CCOCC3)nc(N3CCOCC3)n2)cn1 [BKM-120]
- normalised viability (MDA-MB-468 [1]; 10 nM): 97.7%
- normalised viability (MDA-MB-468 [1]; 1000 nM): 78.7%
- normalised viability (MDA-MB-468 [1]; 10000 nM): 15.3%
- normalised viability (HCC1143; 10 nM): 81.4%
- normalised viability (HCC1143; 1000 nM): 72.8%
- normalised viability (HCC1143; 10000 nM): 20.8%
- normalised viability (HCC1937 [2]; 10 nM): 121%
- normalised viability (HCC1937 [2]; 1000 nM): 87.9%
- normalised viability (HCC1937 [2]; 10000 nM): 13.7%
- normalised viability (MDA-MB-231 [3]; 10 nM): 94.2%
- normalised viability (MDA-MB-231 [3]; 1000 nM): 69.1%
- normalised viability (MDA-MB-231 [3]; 10000 nM): 15.3%
- normalised viability (CAL-148; 3 nM): 94.3%
- normalised viability (CAL-148; 30 nM): 104%
- normalised viability (CAL-148; 100 nM): 98.7%
- normalised viability (HDQ-P1; 3 nM): 97.8%
- normalised viability (HDQ-P1; 30 nM): 107%
- normalised viability (HDQ-P1; 100 nM): 97.7%
- normalised viability (MDA-MB-436 [4]; 10 nM): 82.4%
- normalised viability (MDA-MB-436 [4]; 1000 nM): 93.8%
- normalised viability (MDA-MB-436 [4]; 10000 nM): 16.5%
- normalised viability (HCC1599 [5]; 10 nM): 92.8%
- normalised viability (HCC1599 [5]; 1000 nM): 63.6%
- normalised viability (HCC1599 [5]; 10000 nM): 32.7%
- normalised viability (CAL-120; 10 nM): 81.1%
- normalised viability (CAL-120; 1000 nM): 54.5%
- normalised viability (CAL-120; 10000 nM): 13.5%
- normalised viability (Hs578T; 10 nM): 114%
- normalised viability (Hs578T; 1000 nM): 88.7%
- normalised viability (Hs578T; 10000 nM): 9.62%
- normalised viability (SK-BR-3; 10 nM): 101%
- normalised viability (SK-BR-3; 1000 nM): 24.4%
- normalised viability (SK-BR-3; 10000 nM): 9.47%
- normalised viability (CAL-85-1 [6]; 3 nM): 95.8%
- normalised viability (CAL-85-1 [6]; 30 nM): 80.2%
- normalised viability (CAL-85-1 [6]; 100 nM): 92%
- normalised viability (DU-4475; 3 nM): 104%
- normalised viability (DU-4475; 30 nM): 93.3%
- normalised viability (DU-4475; 100 nM): 101%
- normalised viability (MDA-MB-453; 3 nM): 111%
- normalised viability (MDA-MB-453; 30 nM): 114%
- normalised viability (MDA-MB-453; 100 nM): 96.7%

Structure (SMILES): CNC(=O)c1ccc(N2C(=S)N(c3ccc(C#N)c(C(F)(F)F)c3)C(=O)C2(C)C)cc1F [Enzalutamide]
- drug sensitivity score (MDA-MB-468 [7]): 0
- drug sensitivity score (HCC1937 [8]): 0
- drug sensitivity score (MDA-MB-231 [9]): 0
- drug sensitivity score (MDA-MB-436 [10]): 0
- drug sensitivity score (HCC1599 [11]): 0
- drug sensitivity score (CAL-85-1 [12]): 0
- drug sensitivity score (MFM-223): 0
- drug sensitivity score (MCF-10A): 0

Structure (SMILES): O=P1(N(CCCl)CCCl)NCCCO1 (centres undefined) [Cyclophosphamide]
- drug sensitivity score (HCC1937 [8]): 0
- drug sensitivity score (MDA-MB-231 [9]): 0
- drug sensitivity score (MDA-MB-436 [10]): 0
- drug sensitivity score (HCC1599 [11]): 0
- drug sensitivity score (CAL-85-1 [12]): 0
- drug sensitivity score (MFM-223): 0
- drug sensitivity score (MCF-10A): 0
- normalised viability (MDA-MB-468 [1]; 40 nM): 102%
- normalised viability (MDA-MB-468 [1]; 4000 nM): 100%
- normalised viability (MDA-MB-468 [1]; 40000 nM): 106%
- normalised viability (HCC1143; 40 nM): 84.1%
- normalised viability (HCC1143; 4000 nM): 93.6%
- normalised viability (HCC1143; 40000 nM): 87.3%
- normalised viability (HCC1937 [2]; 40 nM): 98.3%
- normalised viability (HCC1937 [2]; 4000 nM): 111%
- normalised viability (HCC1937 [2]; 40000 nM): 98.5%
- normalised viability (MDA-MB-231 [3]; 40 nM): 101%
- normalised viability (MDA-MB-231 [3]; 4000 nM): 96.9%
- normalised viability (MDA-MB-231 [3]; 40000 nM): 96.9%
- normalised viability (CAL-148; 12 nM): 100%
- normalised viability (CAL-148; 120 nM): 102%
- normalised viability (CAL-148; 400 nM): 109%
- normalised viability (HDQ-P1; 12 nM): 119%
- normalised viability (HDQ-P1; 120 nM): 109%
- normalised viability (HDQ-P1; 400 nM): 104%
- normalised viability (MDA-MB-436 [4]; 40 nM): 108%
- normalised viability (MDA-MB-436 [4]; 4000 nM): 83.7%
- normalised viability (MDA-MB-436 [4]; 40000 nM): 83.9%
- normalised viability (HCC1599 [5]; 40 nM): 89.4%
- normalised viability (HCC1599 [5]; 4000 nM): 78%
- normalised viability (HCC1599 [5]; 40000 nM): 91.5%
- normalised viability (CAL-120; 40 nM): 97.1%
- normalised viability (CAL-120; 4000 nM): 95.7%
- normalised viability (CAL-120; 40000 nM): 83.8%
- normalised viability (Hs578T; 40 nM): 107%
- normalised viability (Hs578T; 4000 nM): 108%
- normalised viability (Hs578T; 40000 nM): 112%
- normalised viability (SK-BR-3; 40 nM): 105%
- normalised viability (SK-BR-3; 4000 nM): 102%
- normalised viability (SK-BR-3; 40000 nM): 110%
- normalised viability (CAL-85-1 [6]; 12 nM): 98.8%
- normalised viability (CAL-85-1 [6]; 120 nM): 89.9%
- normalised viability (CAL-85-1 [6]; 400 nM): 97.5%
- normalised viability (DU-4475; 12 nM): 110%
- normalised viability (DU-4475; 120 nM): 90.9%
- normalised viability (DU-4475; 400 nM): 113%
- normalised viability (MDA-MB-453; 12 nM): 105%
- normalised viability (MDA-MB-453; 120 nM): 105%
- normalised viability (MDA-MB-453; 400 nM): 111%
